Results reported in PMC5048296, “Sex pheromone recognition and characterization of three pheromone-binding proteins in the legume pod borer, Maruca vitrata Fabricius (Lepidoptera: Crambidae)” (Scientific Reports, 2016).
Values after ≈ are worked out from the molar mass of the structure shown. Where two headings read alike, the source gives them in different places.

How the values were obtained:
MvitPBP2 = MvitPBP2 (Maruca vitrata, UniProt A0A1D6YJA8); experiment: Fluorescence competitive binding assay with 1-NPN probe, recombinant MvitPBP2
MvitPBP2, sequence (A0A1D6YJA8 entry or part of it): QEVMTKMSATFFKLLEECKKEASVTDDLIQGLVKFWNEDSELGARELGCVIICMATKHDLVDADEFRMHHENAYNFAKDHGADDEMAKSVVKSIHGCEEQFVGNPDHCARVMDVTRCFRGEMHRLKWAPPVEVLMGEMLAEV
Method: (§1) Fluorescence binding activity was determined according to the method of Sun et al.[33]. Emission fluorescence spectra were recorded on a Hitachi F-4500 at 25 °C in a right angle configuration, with a 1 cm light path quartz cuvette and 5 nm slits for both excitation and emission. The protein was dissolved in 20 mM Tris-HCl buffer (pH 7.4) and ligands were added as 1 mM methanol solutions. To measure the affinity of the fluorescent ligand 1-NPN to recombinant target proteins, a 2 μM protein solution in 20 mM Tris-HCl (pH 7.4) was titrated with aliquots of […] ligand in methanol to final concentrations of 2–16 μM. After each PBP or ligand was added into the reaction buffer, the mixture solution was incubated for 2 min at room temperature. The probe was excited at 337 nm and emission spectra were recorded between 380 and 450 nm. The affinities of the other ligands were measured in competitive binding assays. A solution of the protein and 1-NPN at a concentration of 2 μM was titrated with 1 mM methanol solutions of each competitor over concentration ranges of 2–24 μM, depending on the ligand (the solubilities are (EPA estimates): E10E12-16:Ald, 0.5 uM; E10-16:Ald, 0.3 uM; E10E12-16:OH, 0.17 uM; and E10-16:OH, 0.97 uM in ChemSpider). The dissociation constant for 1-NPN and the stoichiometry of binding were obtained by processing the data using Prism software. Dissociation constants of the competitors were calculated from the corresponding IC50 values (concentrations of ligands halving the initial fluorescence value of 1-NPN), using the equation: Ki = [IC50]/1 + [1-NPN]/K1-NPN, where [1-NPN] is the free concentration of 1-NPN and K1-NPN is the dissociation constant of the coplex protein/1-NPN.

[1] = parameters: method as in ChemSpider; conditions: ref ChemSpider; cited from earlier work
MvitPBP1 = MvitPBP1 (Maruca vitrata, UniProt A0A0K0K7G1); experiment: Fluorescence competitive binding assay with 1-NPN probe, recombinant MvitPBP1
MvitPBP1, sequence (A0A0K0K7G1 entry or part of it): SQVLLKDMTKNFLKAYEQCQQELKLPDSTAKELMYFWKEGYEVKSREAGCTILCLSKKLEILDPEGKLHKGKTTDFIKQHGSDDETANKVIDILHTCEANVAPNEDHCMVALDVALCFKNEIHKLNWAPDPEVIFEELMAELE
Method: as §1

[2] = system: MvitPBP3 (Maruca vitrata); experiment: Fluorescence competitive binding assay with 1-NPN probe, recombinant MvitPBP3
MvitPBP3 (Maruca vitrata), sequence (A0A1D6YJA8 entry or part of it): as the sequence (A0A1D6YJA8 entry or part of it) above
Method: as §1, with “A solution of the protein and 1-NPN at a concentration of 2 μM was titrated with 1 mM methanol solutions of each competitor over concentration ranges of 2–24 μM, depending on the ligand (the solubilities are (EPA estimates): E10E12-16:Ald, 0.5 uM; E10-16:Ald, 0.3 uM; E10E12-16:OH, 0.17 uM; and E10-16:OH, 0.97 uM in ChemSpider). The dissociation constant for 1-NPN and the stoichiometry of binding were obtained by processing the data using Prism software.” left out

MvitGOBP2 = system: MvitGOBP2; parameters: method as in PMID 26517714; conditions: read-out: Ligand concentration at which fluorescence intensity of the MvitGOBP2/1-NPN complex decreased to approximately 50%; cited from earlier work
[3] = MvitPBP2; 2 μM protein and 1-NPN, 20 mM Tris-HCl pH 7.4; read-out: IC50 (ligand concentration displacing 50% of the fluorescence intensity of the MvitPBPs/1-NPN complex)
[4] = MvitPBP2; calculated from IC50; read-out: Ki (dissociation constant)
[5] = MvitPBP1, 2 μM protein and 1-NPN, 20 mM Tris-HCl pH 7.4, read-out: IC50 (ligand concentration displacing 50% of the fluorescence intensity of the MvitPBPs/1-NPN complex)
[6] = MvitPBP1, calculated from IC50, read-out: Ki (dissociation constant)

| SMILES | IC50 (MvitPBP2; [3]) | Ki (MvitPBP2; [4]) | Solubility (EPA estimates) [1] | IC50 (MvitPBP1; [5]) | Ki (MvitPBP1; [6]) | other results |
| --- | --- | --- | --- | --- | --- | --- |
| CCCCC/C=C/CCCCCCCCCO [E10-16: OH, (E)-10-Hexadecen-1-ol] | 6.82 µM | 5.9 µM | 0.97 µM (≈ 0.233 µg/mL) | 7.64 µM | 6.69 µM |  |
| CCC/C=C/C=C/CCCCCCCCC=O [E10E12-16: Ald, (E,E)-10,12-Hexadecadienal] | 5.89 µM | 5.09 µM | 0.5 µM (≈ 0.118 µg/mL) | 5.68 µM | 4.97 µM |  |
| CC(C=O)Cc1ccccc1 (stereo not shown) [2-methyl-3-phenylpropanal] |  | 18.1 µM |  |  |  | IC50 (MvitPBP2; read-out: IC50 (ligand concentration displacing 50% of the fluorescence intensity of the MvitPBPs/1-NPN complex); MvitPBP2; 2 μM protein and 1-NPN, 20 mM Tris-HCl pH 7.4): 21 µM; Ligand binding capacity (in words) [2]: bonded strongly; IC50 (MvitGOBP2): 3.81 µM |
| CCC/C=C/C=C/CCCCCCCCCO [E10E12-16: OH, (E,E)-10,12-Hexadecadien-1-ol] | 5.91 µM | 5.11 µM | 0.17 µM (≈ 0.0405 µg/mL) | 8.84 µM | 7.73 µM |  |
| CC(=O)c1ccc(C(C)=O)cc1 [1,4-diacetyl benzene] |  |  |  |  |  | IC50 (MvitPBP1): 19.6 µM; Ki (MvitPBP1): 17.2 µM |
| CCCCCCCCOC(=O)CCC [Butanoic acid octyl ester] |  |  |  |  |  | IC50 (MvitGOBP2): 8.5 µM |
| CCCCC/C=C/CCCCCCCCC=O [E10-16: Ald, (E)-10-Hexadecenal] | 5.53 µM | 4.78 µM | 0.3 µM (≈ 0.0715 µg/mL) | 7.36 µM | 6.44 µM |  |
| c1ccc(Nc2cccc3ccccc23)cc1 [1-NPN, N-phenyl-1-naphthylamine, reference compound] |  |  |  |  |  | Kd (MvitPBP2; read-out: Dissociation constant of the MvitPBP2/1-NPN complex; calculated by Scatchard plots): 11.9 µM; Kd (MvitPBP1): 13 µM |
| Oc1cccc2[nH]ccc12 [1H-indol-4-ol] |  |  |  | 22.5 µM | 19.7 µM |  |
